Test results reported in ChEMBL document CHEMBL5442219.

Experiments:
Conditions in all cases: Compound concentration 10 µM
[1] = target: Histamine H3 receptor (Homo sapiens) (UniProt Q9Y5N1)
Description: PDSP Primary Binding target: HRH3 - Compounds are tested at 10 uM concentration, plate are incubated at room temperature in the dark for 90 minutes. Reaction are stopped by vacuum filtration onto 0.3% polyethyleneimine soaked filter mats using Filtermate harvester. Scintilation cocktail is then melted onto microwave-dried filters on a hot plate and the radio activity is counted in Microbia counter.

[2] = target: Sigma non-opioid intracellular receptor 1 (Homo sapiens) (UniProt Q99720)
[3] = target: D(1A) dopamine receptor (Homo sapiens) (UniProt P21728)
Description: PDSP Primary Binding target: DRD1 - Compounds are tested at 10 uM concentration, plate are incubated at room temperature in the dark for 90 minutes. Reaction are stopped by vacuum filtration onto 0.3% polyethyleneimine soaked filter mats using Filtermate harvester. Scintilation cocktail is then melted onto microwave-dried filters on a hot plate and the radio activity is counted in Microbia counter.

[4] = target: D(2) dopamine receptor (Homo sapiens) (UniProt P14416)
Description: PDSP Primary Binding target: DRD2 - Compounds are tested at 10 uM concentration, plate are incubated at room temperature in the dark for 90 minutes. Reaction are stopped by vacuum filtration onto 0.3% polyethyleneimine soaked filter mats using Filtermate harvester. Scintilation cocktail is then melted onto microwave-dried filters on a hot plate and the radio activity is counted in Microbia counter.

[5] = target: 5-hydroxytryptamine receptor 7 (Homo sapiens) (UniProt P34969)
Description: PDSP Primary Binding target: HTR7 - Compounds are tested at 10 uM concentration, plate are incubated at room temperature in the dark for 90 minutes. Reaction are stopped by vacuum filtration onto 0.3% polyethyleneimine soaked filter mats using Filtermate harvester. Scintilation cocktail is then melted onto microwave-dried filters on a hot plate and the radio activity is counted in Microbia counter.

[6] = target: 5-hydroxytryptamine receptor 1E (Homo sapiens) (UniProt P28566)
5-hydroxytryptamine receptor 1E (Homo sapiens), sequence (P28566 whole entry): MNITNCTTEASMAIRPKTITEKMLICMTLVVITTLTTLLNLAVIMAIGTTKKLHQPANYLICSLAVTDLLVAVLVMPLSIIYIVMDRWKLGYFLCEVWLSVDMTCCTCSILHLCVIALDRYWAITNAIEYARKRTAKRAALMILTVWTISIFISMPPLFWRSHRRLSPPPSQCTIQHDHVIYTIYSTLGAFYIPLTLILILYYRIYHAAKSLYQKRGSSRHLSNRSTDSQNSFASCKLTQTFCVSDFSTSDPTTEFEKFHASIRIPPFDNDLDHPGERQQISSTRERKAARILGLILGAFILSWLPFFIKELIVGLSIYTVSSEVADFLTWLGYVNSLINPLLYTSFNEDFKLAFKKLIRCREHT
Description: PDSP Primary Binding target: HTR1E - Compounds are tested at 10 uM concentration, plate are incubated at room temperature in the dark for 90 minutes. Reaction are stopped by vacuum filtration onto 0.3% polyethyleneimine soaked filter mats using Filtermate harvester. Scintilation cocktail is then melted onto microwave-dried filters on a hot plate and the radio activity is counted in Microbia counter.

[7] = target: T1, 5-hydroxytryptamine receptor 1A (Homo sapiens) (UniProt P08908)
T1 sequence (whole entry): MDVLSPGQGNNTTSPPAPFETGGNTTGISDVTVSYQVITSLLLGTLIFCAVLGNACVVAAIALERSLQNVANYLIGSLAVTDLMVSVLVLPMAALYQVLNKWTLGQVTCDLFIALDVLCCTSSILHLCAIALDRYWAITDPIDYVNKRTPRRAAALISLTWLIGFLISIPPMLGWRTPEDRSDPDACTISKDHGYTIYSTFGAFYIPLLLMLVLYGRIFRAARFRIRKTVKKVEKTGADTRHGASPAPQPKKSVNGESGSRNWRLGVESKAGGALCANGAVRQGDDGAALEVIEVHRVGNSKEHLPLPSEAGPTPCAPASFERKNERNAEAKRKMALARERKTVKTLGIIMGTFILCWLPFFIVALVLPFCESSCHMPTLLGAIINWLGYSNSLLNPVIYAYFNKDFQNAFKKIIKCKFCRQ
Description: PDSP Primary Binding target: HTR1A - Compounds are tested at 10 uM concentration, plate are incubated at room temperature in the dark for 90 minutes. Reaction are stopped by vacuum filtration onto 0.3% polyethyleneimine soaked filter mats using Filtermate harvester. Scintilation cocktail is then melted onto microwave-dried filters on a hot plate and the radio activity is counted in Microbia counter.

[8] = target: T2, Muscarinic acetylcholine receptor M1 (Homo sapiens) (UniProt P11229)
T2 sequence (whole entry): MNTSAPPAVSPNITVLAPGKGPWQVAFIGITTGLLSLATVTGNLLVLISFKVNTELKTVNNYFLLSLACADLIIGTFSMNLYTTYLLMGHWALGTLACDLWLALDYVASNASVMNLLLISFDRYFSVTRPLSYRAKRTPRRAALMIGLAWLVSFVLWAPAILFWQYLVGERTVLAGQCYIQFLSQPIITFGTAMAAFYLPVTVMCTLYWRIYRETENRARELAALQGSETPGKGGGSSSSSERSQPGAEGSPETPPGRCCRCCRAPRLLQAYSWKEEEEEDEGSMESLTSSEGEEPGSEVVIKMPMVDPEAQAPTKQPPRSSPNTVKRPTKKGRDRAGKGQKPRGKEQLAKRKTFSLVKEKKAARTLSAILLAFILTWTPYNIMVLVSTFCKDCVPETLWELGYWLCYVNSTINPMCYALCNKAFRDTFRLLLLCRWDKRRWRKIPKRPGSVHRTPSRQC
Description: PDSP Primary Binding target: CHRM1 - Compounds are tested at 10 uM concentration, plate are incubated at room temperature in the dark for 90 minutes. Reaction are stopped by vacuum filtration onto 0.3% polyethyleneimine soaked filter mats using Filtermate harvester. Scintilation cocktail is then melted onto microwave-dried filters on a hot plate and the radio activity is counted in Microbia counter.

[9] = target: 5-hydroxytryptamine receptor 2A (Homo sapiens) (UniProt P28223)
5-hydroxytryptamine receptor 2A (Homo sapiens), sequence (P28223 whole entry): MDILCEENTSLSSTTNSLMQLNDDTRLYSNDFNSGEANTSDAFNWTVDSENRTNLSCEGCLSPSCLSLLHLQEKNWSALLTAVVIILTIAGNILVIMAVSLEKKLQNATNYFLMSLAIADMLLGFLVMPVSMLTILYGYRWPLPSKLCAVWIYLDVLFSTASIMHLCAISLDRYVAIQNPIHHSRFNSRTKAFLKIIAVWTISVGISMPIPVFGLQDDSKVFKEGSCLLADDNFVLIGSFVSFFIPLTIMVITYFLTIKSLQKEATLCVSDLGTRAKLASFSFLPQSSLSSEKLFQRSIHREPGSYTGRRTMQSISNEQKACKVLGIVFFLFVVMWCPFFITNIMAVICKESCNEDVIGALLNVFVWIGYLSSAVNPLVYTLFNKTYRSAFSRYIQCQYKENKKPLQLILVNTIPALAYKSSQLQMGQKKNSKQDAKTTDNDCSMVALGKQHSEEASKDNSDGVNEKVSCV
Description: PDSP Primary Binding target: HTR2A - Compounds are tested at 10 uM concentration, plate are incubated at room temperature in the dark for 90 minutes. Reaction are stopped by vacuum filtration onto 0.3% polyethyleneimine soaked filter mats using Filtermate harvester. Scintilation cocktail is then melted onto microwave-dried filters on a hot plate and the radio activity is counted in Microbia counter.

[10] = target: 5-hydroxytryptamine receptor 5A (Homo sapiens) (UniProt P47898)
5-hydroxytryptamine receptor 5A (Homo sapiens), sequence (P47898 whole entry): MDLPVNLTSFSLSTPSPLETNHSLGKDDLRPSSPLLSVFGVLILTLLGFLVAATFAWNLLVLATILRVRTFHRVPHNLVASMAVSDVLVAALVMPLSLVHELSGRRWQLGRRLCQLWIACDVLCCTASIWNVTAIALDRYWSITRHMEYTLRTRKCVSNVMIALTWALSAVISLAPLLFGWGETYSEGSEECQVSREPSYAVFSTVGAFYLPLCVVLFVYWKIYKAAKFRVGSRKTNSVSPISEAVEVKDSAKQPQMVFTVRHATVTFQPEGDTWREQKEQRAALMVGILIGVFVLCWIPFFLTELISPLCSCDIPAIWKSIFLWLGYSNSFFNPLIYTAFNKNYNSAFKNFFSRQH
Description: PDSP Primary Binding target: HTR5A - Compounds are tested at 10 uM concentration, plate are incubated at room temperature in the dark for 90 minutes. Reaction are stopped by vacuum filtration onto 0.3% polyethyleneimine soaked filter mats using Filtermate harvester. Scintilation cocktail is then melted onto microwave-dried filters on a hot plate and the radio activity is counted in Microbia counter.

[11] = target: T3, Alpha-1A adrenergic receptor (Homo sapiens) (UniProt P35348)
T3 sequence (whole entry): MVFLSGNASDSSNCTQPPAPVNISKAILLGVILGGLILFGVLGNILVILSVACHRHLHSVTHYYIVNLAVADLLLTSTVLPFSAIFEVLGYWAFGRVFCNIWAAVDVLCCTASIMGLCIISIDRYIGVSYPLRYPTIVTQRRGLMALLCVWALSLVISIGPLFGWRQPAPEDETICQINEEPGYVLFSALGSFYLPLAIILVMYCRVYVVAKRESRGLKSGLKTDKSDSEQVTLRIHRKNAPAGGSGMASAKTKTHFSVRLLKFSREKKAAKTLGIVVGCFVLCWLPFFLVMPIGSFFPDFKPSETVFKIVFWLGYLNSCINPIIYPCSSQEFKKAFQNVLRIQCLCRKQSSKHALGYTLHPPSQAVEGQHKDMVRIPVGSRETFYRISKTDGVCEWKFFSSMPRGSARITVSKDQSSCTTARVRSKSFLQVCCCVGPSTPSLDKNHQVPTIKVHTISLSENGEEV
Description: PDSP Primary Binding target: ADRA1A - Compounds are tested at 10 uM concentration, plate are incubated at room temperature in the dark for 90 minutes. Reaction are stopped by vacuum filtration onto 0.3% polyethyleneimine soaked filter mats using Filtermate harvester. Scintilation cocktail is then melted onto microwave-dried filters on a hot plate and the radio activity is counted in Microbia counter.

[12] = target: T4, 5-hydroxytryptamine receptor 2C (Homo sapiens) (UniProt P28335)
T4 sequence (whole entry): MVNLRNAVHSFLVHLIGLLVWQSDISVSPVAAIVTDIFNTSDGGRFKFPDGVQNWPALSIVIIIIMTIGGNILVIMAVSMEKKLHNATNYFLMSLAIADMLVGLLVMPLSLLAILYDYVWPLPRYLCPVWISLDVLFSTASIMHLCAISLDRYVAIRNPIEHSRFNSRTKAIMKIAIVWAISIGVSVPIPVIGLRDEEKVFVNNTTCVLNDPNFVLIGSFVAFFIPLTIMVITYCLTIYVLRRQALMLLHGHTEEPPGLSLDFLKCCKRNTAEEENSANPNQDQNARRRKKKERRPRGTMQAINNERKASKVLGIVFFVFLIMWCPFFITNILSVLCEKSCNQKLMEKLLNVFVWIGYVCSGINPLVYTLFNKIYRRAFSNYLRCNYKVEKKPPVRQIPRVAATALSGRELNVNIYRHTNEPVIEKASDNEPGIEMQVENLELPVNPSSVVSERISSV
Description: PDSP Primary Binding target: HTR2C - Compounds are tested at 10 uM concentration, plate are incubated at room temperature in the dark for 90 minutes. Reaction are stopped by vacuum filtration onto 0.3% polyethyleneimine soaked filter mats using Filtermate harvester. Scintilation cocktail is then melted onto microwave-dried filters on a hot plate and the radio activity is counted in Microbia counter.

[13] = target: Sodium-dependent dopamine transporter (Homo sapiens) (UniProt Q01959)
Description: PDSP Primary Binding target: SLC6A3 - Compounds are tested at 10 uM concentration, plate are incubated at room temperature in the dark for 90 minutes. Reaction are stopped by vacuum filtration onto 0.3% polyethyleneimine soaked filter mats using Filtermate harvester. Scintilation cocktail is then melted onto microwave-dried filters on a hot plate and the radio activity is counted in Microbia counter.

[14] = target: 5-hydroxytryptamine receptor 2B (Homo sapiens) (UniProt P41595)
5-hydroxytryptamine receptor 2B (Homo sapiens), sequence (P41595 whole entry): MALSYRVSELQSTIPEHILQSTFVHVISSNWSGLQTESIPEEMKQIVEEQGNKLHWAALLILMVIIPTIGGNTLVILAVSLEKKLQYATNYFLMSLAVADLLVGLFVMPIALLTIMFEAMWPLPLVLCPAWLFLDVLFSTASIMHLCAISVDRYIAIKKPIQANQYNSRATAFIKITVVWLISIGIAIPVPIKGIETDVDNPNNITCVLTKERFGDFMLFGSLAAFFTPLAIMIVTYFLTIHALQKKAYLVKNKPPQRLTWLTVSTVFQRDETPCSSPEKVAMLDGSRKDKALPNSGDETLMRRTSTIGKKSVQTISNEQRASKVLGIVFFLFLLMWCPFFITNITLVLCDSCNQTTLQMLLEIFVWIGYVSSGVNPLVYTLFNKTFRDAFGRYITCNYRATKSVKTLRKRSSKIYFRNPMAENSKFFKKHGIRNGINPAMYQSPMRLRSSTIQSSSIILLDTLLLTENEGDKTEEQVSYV
Description: PDSP Primary Binding target: HTR2B - Compounds are tested at 10 uM concentration, plate are incubated at room temperature in the dark for 90 minutes. Reaction are stopped by vacuum filtration onto 0.3% polyethyleneimine soaked filter mats using Filtermate harvester. Scintilation cocktail is then melted onto microwave-dried filters on a hot plate and the radio activity is counted in Microbia counter.

[15] = target: Sigma intracellular receptor 2 (Homo sapiens) (UniProt Q5BJF2)
Sigma intracellular receptor 2 (Homo sapiens), sequence (Q5BJF2 whole entry): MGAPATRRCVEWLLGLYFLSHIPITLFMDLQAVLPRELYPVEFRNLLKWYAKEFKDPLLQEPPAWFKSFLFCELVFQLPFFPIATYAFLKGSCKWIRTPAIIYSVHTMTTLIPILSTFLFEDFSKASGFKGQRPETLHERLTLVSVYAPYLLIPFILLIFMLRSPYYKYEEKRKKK
Description: PDSP Primary Binding target: TMEM97 - Compounds are tested at 10 uM concentration, plate are incubated at room temperature in the dark for 90 minutes. Reaction are stopped by vacuum filtration onto 0.3% polyethyleneimine soaked filter mats using Filtermate harvester. Scintilation cocktail is then melted onto microwave-dried filters on a hot plate and the radio activity is counted in Microbia counter.

[16] = target: 5-hydroxytryptamine receptor 1B (Homo sapiens) (UniProt P28222)
5-hydroxytryptamine receptor 1B (Homo sapiens), sequence (P28222 whole entry): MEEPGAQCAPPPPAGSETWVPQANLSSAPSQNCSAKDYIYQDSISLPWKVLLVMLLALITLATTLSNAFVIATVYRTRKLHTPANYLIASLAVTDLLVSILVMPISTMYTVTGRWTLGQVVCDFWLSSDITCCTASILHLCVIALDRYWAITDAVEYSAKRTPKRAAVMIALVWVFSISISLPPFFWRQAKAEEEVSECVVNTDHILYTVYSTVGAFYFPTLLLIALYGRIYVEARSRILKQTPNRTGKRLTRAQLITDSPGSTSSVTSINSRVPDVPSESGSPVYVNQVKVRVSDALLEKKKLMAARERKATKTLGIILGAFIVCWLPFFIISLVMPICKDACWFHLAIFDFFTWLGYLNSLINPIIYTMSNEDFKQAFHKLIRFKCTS
Description: PDSP Primary Binding target: HTR1B - Compounds are tested at 10 uM concentration, plate are incubated at room temperature in the dark for 90 minutes. Reaction are stopped by vacuum filtration onto 0.3% polyethyleneimine soaked filter mats using Filtermate harvester. Scintilation cocktail is then melted onto microwave-dried filters on a hot plate and the radio activity is counted in Microbia counter.

[17] = target: Sodium-dependent serotonin transporter (Homo sapiens) (UniProt P31645)
Sodium-dependent serotonin transporter (Homo sapiens), sequence (P31645 whole entry, looked up): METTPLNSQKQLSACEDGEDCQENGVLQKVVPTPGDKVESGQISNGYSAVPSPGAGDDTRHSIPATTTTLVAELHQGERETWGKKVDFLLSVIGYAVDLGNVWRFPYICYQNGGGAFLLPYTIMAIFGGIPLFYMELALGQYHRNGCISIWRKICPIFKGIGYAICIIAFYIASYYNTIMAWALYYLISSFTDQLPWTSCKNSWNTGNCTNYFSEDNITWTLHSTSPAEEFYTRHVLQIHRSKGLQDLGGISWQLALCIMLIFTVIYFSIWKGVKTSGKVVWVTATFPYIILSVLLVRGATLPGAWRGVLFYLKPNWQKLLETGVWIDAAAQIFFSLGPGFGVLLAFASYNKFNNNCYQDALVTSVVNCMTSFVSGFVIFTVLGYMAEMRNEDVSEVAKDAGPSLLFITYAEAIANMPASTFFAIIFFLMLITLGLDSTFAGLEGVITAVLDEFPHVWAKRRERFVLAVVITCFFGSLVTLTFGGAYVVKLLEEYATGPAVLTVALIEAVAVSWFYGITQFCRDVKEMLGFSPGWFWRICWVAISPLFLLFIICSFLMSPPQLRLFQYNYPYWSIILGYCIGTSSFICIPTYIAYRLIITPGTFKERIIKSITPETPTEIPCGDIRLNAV
Description: PDSP Primary Binding target: SLC6A4 - Compounds are tested at 10 uM concentration, plate are incubated at room temperature in the dark for 90 minutes. Reaction are stopped by vacuum filtration onto 0.3% polyethyleneimine soaked filter mats using Filtermate harvester. Scintilation cocktail is then melted onto microwave-dried filters on a hot plate and the radio activity is counted in Microbia counter.

[18] = target: 5-hydroxytryptamine receptor 1D (Homo sapiens) (UniProt P28221)
5-hydroxytryptamine receptor 1D (Homo sapiens), sequence (P28221 whole entry): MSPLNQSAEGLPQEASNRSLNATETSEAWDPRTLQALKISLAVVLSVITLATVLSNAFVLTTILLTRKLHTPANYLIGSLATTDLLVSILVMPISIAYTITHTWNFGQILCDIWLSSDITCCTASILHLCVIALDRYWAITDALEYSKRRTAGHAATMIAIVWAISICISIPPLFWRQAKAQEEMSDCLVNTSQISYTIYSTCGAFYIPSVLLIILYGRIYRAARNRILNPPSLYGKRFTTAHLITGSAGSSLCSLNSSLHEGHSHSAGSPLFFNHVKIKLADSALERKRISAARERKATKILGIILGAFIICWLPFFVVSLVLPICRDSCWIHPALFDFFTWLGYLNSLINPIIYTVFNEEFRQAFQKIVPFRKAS
Description: PDSP Primary Binding target: HTR1D - Compounds are tested at 10 uM concentration, plate are incubated at room temperature in the dark for 90 minutes. Reaction are stopped by vacuum filtration onto 0.3% polyethyleneimine soaked filter mats using Filtermate harvester. Scintilation cocktail is then melted onto microwave-dried filters on a hot plate and the radio activity is counted in Microbia counter.

[19] = target: D(3) dopamine receptor (Homo sapiens) (UniProt P35462)
D(3) dopamine receptor (Homo sapiens), sequence (P35462 whole entry): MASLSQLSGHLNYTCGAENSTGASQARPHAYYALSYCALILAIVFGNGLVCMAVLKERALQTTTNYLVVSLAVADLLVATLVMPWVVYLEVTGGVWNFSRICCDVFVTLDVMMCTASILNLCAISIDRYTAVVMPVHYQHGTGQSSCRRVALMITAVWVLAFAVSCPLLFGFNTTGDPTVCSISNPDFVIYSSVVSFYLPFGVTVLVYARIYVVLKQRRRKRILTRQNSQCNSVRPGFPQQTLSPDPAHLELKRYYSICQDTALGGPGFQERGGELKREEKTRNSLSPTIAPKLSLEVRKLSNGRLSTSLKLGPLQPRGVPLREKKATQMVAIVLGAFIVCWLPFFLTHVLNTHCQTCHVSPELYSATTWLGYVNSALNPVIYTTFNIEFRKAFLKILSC
Description: PDSP Primary Binding target: DRD3 - Compounds are tested at 10 uM concentration, plate are incubated at room temperature in the dark for 90 minutes. Reaction are stopped by vacuum filtration onto 0.3% polyethyleneimine soaked filter mats using Filtermate harvester. Scintilation cocktail is then melted onto microwave-dried filters on a hot plate and the radio activity is counted in Microbia counter.

[20] = target: Mu-type opioid receptor (Homo sapiens) (UniProt P35372)
Description: PDSP Primary Binding target: OPRM1 - Compounds are tested at 10 uM concentration, plate are incubated at room temperature in the dark for 90 minutes. Reaction are stopped by vacuum filtration onto 0.3% polyethyleneimine soaked filter mats using Filtermate harvester. Scintilation cocktail is then melted onto microwave-dried filters on a hot plate and the radio activity is counted in Microbia counter.

Sigma non-opioid intracellular receptor 1 (Homo sapiens), sequence (Q99720 whole entry): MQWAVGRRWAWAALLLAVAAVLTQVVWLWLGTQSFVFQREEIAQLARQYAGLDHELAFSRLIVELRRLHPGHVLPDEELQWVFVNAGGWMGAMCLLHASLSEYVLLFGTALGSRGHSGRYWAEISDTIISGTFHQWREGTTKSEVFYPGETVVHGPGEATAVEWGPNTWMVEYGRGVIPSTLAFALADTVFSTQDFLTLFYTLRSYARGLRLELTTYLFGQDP
D(1A) dopamine receptor (Homo sapiens), sequence (P21728 whole entry): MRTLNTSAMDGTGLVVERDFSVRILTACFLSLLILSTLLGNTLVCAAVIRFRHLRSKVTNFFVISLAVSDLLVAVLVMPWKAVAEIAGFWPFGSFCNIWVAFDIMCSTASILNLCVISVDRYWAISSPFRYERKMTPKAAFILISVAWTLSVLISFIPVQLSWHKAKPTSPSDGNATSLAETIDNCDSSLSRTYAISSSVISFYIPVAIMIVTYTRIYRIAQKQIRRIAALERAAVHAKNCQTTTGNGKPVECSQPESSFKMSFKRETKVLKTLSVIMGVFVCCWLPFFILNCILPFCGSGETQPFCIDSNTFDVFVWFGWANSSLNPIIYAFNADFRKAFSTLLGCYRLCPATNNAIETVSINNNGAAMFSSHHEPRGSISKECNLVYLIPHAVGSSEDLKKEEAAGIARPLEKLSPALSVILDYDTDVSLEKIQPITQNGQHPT
D(2) dopamine receptor (Homo sapiens), sequence (P14416 whole entry): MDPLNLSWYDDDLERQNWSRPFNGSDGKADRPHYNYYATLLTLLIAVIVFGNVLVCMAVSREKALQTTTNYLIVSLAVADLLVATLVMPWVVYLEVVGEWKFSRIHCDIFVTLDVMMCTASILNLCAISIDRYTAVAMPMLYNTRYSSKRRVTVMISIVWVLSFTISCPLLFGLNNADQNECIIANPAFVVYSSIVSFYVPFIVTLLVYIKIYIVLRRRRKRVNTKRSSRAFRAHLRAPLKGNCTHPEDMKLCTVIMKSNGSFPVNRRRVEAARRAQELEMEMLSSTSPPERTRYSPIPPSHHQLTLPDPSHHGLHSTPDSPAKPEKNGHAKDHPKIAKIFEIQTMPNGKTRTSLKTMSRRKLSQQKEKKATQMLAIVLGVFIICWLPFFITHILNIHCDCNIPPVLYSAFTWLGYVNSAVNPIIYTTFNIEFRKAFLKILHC

In the case of `N#Cc1c[nH]c2c(C(=O)N3CCN(CCc4ccc(F)cc4)CC3)cccc12`, the inhibition [1] is reported as -0.43%, the inhibition [2] is reported as 87.6% and the inhibition [3] is reported as 27.9%. The inhibition [4] was 7.47%, the inhibition [5] was 50.6% and the inhibition [6] was 27.3%. The inhibition [7] was 21.2%, the inhibition [8] was -2.04% and the inhibition [9] was 100%. The inhibition [10] was 12.6%, the inhibition [11] was -8.21% and the inhibition [12] was 58.7%. The inhibition [13] was 36.2%, the inhibition [14] was 57.1% and the inhibition [15] was 68.2%. The inhibition [16] was -5.18%, the inhibition [17] was 60.4% and the inhibition [18] was 61.7%. The inhibition [19] was 10.4%.
For `CNc1nc(NCc2ccc(NS(C)(=O)=O)cc2Cl)cc(-c2ccccn2)n1`, the inhibition [1] was -8.26%, the inhibition [2] was 87.2% and the inhibition [3] was 7.8%. The inhibition [4] was -4.41%, the inhibition [5] was 77.9% and the inhibition [6] was -3.24%. It also gave an inhibition [7] of 0.99%, an inhibition [8] of 9.22% and an inhibition [9] of 60.3%. The inhibition [10] was 75.4%, the inhibition [11] was 8% and the inhibition [12] was 55.4%. For the same compound, the inhibition [13] was 47.6%, the inhibition [14] was 66.5% and the inhibition [15] was 39.1%. It also gave an inhibition [16] of 3.99%, an inhibition [20] of 14.5% and an inhibition [17] of 42.1%. It also gave an inhibition [18] of 0.67% and an inhibition [19] of 56.5%.
Work on `COc1ccc(NC(=O)c2ccc(-c3ccc(-c4noc(C)n4)cc3C)cc2)cc1OCCN(C)C` yielded an inhibition [1] of 65.4%, an inhibition [2] of 70% and an inhibition [3] of 47.9%. It also gave an inhibition [4] of 34.6%, an inhibition [5] of 78.8% and an inhibition [6] of 52.5%. For the same compound, the inhibition [7] was 32.1%, the inhibition [8] was 50.7% and the inhibition [9] was 95.4%. The inhibition [10] was 65.6%, the inhibition [11] was 17.3% and the inhibition [12] was 98.3%. For the same compound, the inhibition [13] was 86.1%, the inhibition [14] was 90.6% and the inhibition [15] was 84.2%. For the same compound, the inhibition [16] was 101%, the inhibition [20] was 5.21% and the inhibition [17] was 55.4%. It also gave an inhibition [18] of 101% and an inhibition [19] of 33.1%.
Compound `O=c1ccc2ccc(OCCCCN3CCN(c4cccc5sccc45)CC3)cc2[nH]1` has an inhibition [1] of 54.5%, an inhibition [3] of 82.6% and an inhibition [4] of 104%. For the same compound, the inhibition [5] was 101%, the inhibition [6] was 92.3% and the inhibition [7] was 103%. It also gave an inhibition [8] of 30.3%, an inhibition [9] of 97.1% and an inhibition [10] of 93.1%. The inhibition [11] was 100%, the inhibition [12] was 103% and the inhibition [13] was 88.2%. The inhibition [14] was 96%, the inhibition [15] was 95.6% and the inhibition [16] was 99%. The inhibition [20] was 26.8%, the inhibition [17] was 98.2% and the inhibition [18] was 104%. For the same compound, the inhibition [19] was 100%.
Work on `Cc1cc(NC(=O)NCCN2CCC(O)(Cc3ccccc3)CC2)c2ccccc2n1` yielded an inhibition [1] of 31%, an inhibition [2] of 56.9% and an inhibition [3] of 10.7%. The inhibition [4] was 65.3%, the inhibition [5] was 32% and the inhibition [6] was 5.03%. The inhibition [7] was -6.82%, the inhibition [8] was 13.7% and the inhibition [9] was 52.7%. It also gave an inhibition [10] of 5.79%, an inhibition [11] of 23.9% and an inhibition [12] of 92.3%. It also gave an inhibition [13] of 43.9%, an inhibition [14] of 62.2% and an inhibition [15] of 86%. It also gave an inhibition [16] of 11.5%, an inhibition [20] of 43.3% and an inhibition [17] of 66.3%. It also gave an inhibition [18] of 91.7% and an inhibition [19] of 27.4%.
For `OCc1cc(C(O)CNCCCCCCOCCCCc2ccccc2)ccc1O` (stereo not drawn), the inhibition [1] was 23.3%, the inhibition [3] was 6.76% and the inhibition [4] was 10.9%. For the same compound, the inhibition [5] was 97.4%, the inhibition [6] was 17.4% and the inhibition [7] was 27.8%. For the same compound, the inhibition [8] was 19.1%, the inhibition [9] was 78.2% and the inhibition [10] was 9.07%. For the same compound, the inhibition [11] was 77%, the inhibition [12] was 60.6% and the inhibition [13] was 86.5%. For the same compound, the inhibition [14] was 90.4%, the inhibition [15] was 102% and the inhibition [16] was 51.1%. The inhibition [20] was 6.99%, the inhibition [17] was 91.4% and the inhibition [18] was 76.6%. For the same compound, the inhibition [19] was 59.6%.
`Cc1c(P(=S)(c2ccccc2)c2ccccc2)n2ccccc2[n+]1C/C=C/c1ccccc1` gave an inhibition [1] of 15%, an inhibition [2] of 67.2% and an inhibition [3] of 16.3%. For the same compound, the inhibition [4] was 49%, the inhibition [5] was 34.3% and the inhibition [6] was 1.99%. For the same compound, the inhibition [7] was 54.3%, the inhibition [8] was 88.2% and the inhibition [9] was 55.7%. The inhibition [10] was 42.1%, the inhibition [11] was 28.7% and the inhibition [12] was 25.7%. The inhibition [13] was 83.2%, the inhibition [14] was 8.18% and the inhibition [15] was 88%. The inhibition [16] was 45.4%, the inhibition [20] was 87.3% and the inhibition [17] was 29.7%. For the same compound, the inhibition [18] was 40.5% and the inhibition [19] was 48.5%.
With `CN(C)C(=O)N[C@H]1CC[C@H](CCN2CCN(c3cccc(Cl)c3Cl)CC2)CC1` the inhibition [1] was 4.23%, the inhibition [3] was 36.3% and the inhibition [4] was 100%. The inhibition [5] was 104%, the inhibition [6] was 48% and the inhibition [7] was 102%. It also gave an inhibition [8] of 11.8%, an inhibition [9] of 110% and an inhibition [10] of 69.8%. It also gave an inhibition [11] of 89.1%, an inhibition [12] of 97.3% and an inhibition [13] of 52.5%. For the same compound, the inhibition [14] was 99%, the inhibition [15] was 88.3% and the inhibition [16] was 93.7%. For the same compound, the inhibition [20] was 4.29%, the inhibition [17] was 55% and the inhibition [18] was 101%.
`O=C(O)c1cc(-c2ccc(C3CCNCC3)cc2)c2ccc(-c3ccc(C(F)(F)F)cc3)cc2c1` was tested, and the inhibition [1] was 10.6%, the inhibition [2] was 31.5% and the inhibition [3] was 27%. It also gave an inhibition [4] of 11.9%, an inhibition [5] of 51.5% and an inhibition [6] of 2.57%. The inhibition [7] was 51.4%, the inhibition [8] was 23.8% and the inhibition [9] was 28.4%. The inhibition [10] was 69%, the inhibition [12] was -3.35% and the inhibition [13] was 82.5%. For the same compound, the inhibition [14] was 26.6%, the inhibition [15] was 81.1% and the inhibition [16] was 73.7%. The inhibition [20] was 26.5%, the inhibition [17] was 4.44% and the inhibition [18] was 73.1%. For the same compound, the inhibition [19] was 28.9%.
For `CN1CCC(C(=O)c2cccc(NC(=O)c3c(F)cc(F)cc3F)n2)CC1`, the inhibition [1] was 3.79%, the inhibition [2] was 81.6% and the inhibition [3] was 15.1%. It also gave an inhibition [4] of 26.2%, an inhibition [5] of 52.8% and an inhibition [6] of 102%. For the same compound, the inhibition [7] was 4.22%, the inhibition [8] was 43.1% and the inhibition [9] was 1.42%. It also gave an inhibition [10] of 27.2%, an inhibition [11] of 17.6% and an inhibition [12] of 6.11%. The inhibition [13] was 42.1%, the inhibition [14] was 60.6% and the inhibition [15] was 91%. It also gave an inhibition [16] of 43.4%, an inhibition [20] of 10.5% and an inhibition [17] of 10.4%. For the same compound, the inhibition [18] was 80.7%.
